Values quoted from earlier work, collected in patent US7943127B2 (priority 2004, dated 2011).

Details: in vivo, iv

In the case of `COc1cc(CNC(=O)CCCC/C=C/C(C)C)ccc1O` [Capsaicin, (E)-N-((4-Hydroxy-3-methoxyphenyl)-methyl)-8-methyl-6-nonenamide], the lethal toxic dose is given as “about 0.56 mg/kg”.
